Structures can show the parent of a compound that is named as a salt.
Target: TDP-43 (Homo sapiens, UniProt Q13148)
Assay: TDP-43-DNA alpha-screen assay (bt-TAR-32 displacement)
Type: binding
Conditions: bt-TAR-32 0.125 nM, 15 ng/ml TDP-43
Experimental: Alpha-screen assay: Displacement of bt-TG6 binding was measured using AlphaScreen technology as previously described (Cassel, J. A. et al., Journal of Biomolecular Screening, 2010, 15, 1099-1106; Cassel, J. A.; Reitz, A. B. et al. The effects of small molecule inhibitors of nucleic acid binding to TDP-43 on TDP-43 metabolism and function. Biochimie, 2012, 94, 1974-1981).
Test compounds were diluted in assay buffer (25 mM Tris [pH 7.4], 0.1% bovine serum albumin [BSA], 0.1% Triton X-100) at 4× the desired final concentration. Dilutions of test compound (50 to 0.02 μM in half-log dilutions with a no compound control well) were pre-incubated with TDP-43 (5 μl of 60 ng/mL) pre-bound to AlphaScreen® anti-GST acceptor beads (5 μl of 40 μg/mL) in 15 μl volume for 30 minutes at 23° C. with shaking. Assays were initiated by the addition of 5 μl bt-TAR-32 (5′-CTGCTTTTTGCCTGTACTGGGTCTCTGTGGTT-3′) 0.5 nM pre-bound to AlphaScreen® strepavidin donor beads (40 μg/mL). After incubation in the dark at 23° C. for 90 minutes with shaking, the AlphaScreen® signal was measured on a Synergy 2 plate reader (BioTek, Winooski, Vt.). IC50 values were determined from nonlinear regression fits of the data to a Sigmoidal dose response variable slope model in GraphPad Prism. Final assay conditions are 25 mM Tris [pH 7.4], 0.1% bovine serum albumin [BSA], 0.100 Triton X-100, 15 ng/ml TDP-43, 0.125 nM bTAR32, 10 ug/ml […].

Chain of TDP-43 (Q13148 whole entry): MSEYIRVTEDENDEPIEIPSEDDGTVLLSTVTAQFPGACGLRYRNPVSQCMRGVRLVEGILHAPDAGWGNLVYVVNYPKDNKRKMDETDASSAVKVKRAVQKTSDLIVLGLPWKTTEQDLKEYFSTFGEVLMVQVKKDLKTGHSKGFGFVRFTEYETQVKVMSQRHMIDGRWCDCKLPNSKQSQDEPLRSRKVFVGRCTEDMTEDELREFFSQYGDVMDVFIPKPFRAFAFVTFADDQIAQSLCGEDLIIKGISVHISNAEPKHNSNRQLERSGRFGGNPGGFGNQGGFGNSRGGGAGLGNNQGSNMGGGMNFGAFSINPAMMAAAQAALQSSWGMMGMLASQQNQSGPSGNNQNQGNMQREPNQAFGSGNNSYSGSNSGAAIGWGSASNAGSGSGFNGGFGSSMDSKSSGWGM

Row | SMILES | IC50 [nM]
1 | COc1ccc(-c2cc(NCCCN3CC4CCC(N)C4C3)c3ccccc3n2)cc1 (stereo not drawn) [Example 34, N-(3-(4-Aminohexahydrocyclopenta[c]pyrrol-2(1H)-yl)propyl)-2-(4-methoxyphenyl)quinolin-4-amine trihydrochloride] | 210
2 | CN(C)CCCNc1cc(-c2cccc(N3CCNCC3)c2)nc2ccccc12 [Example 98] | 140
3 | CN(C)CCCNc1cc(-c2cnn(C3CC3)c2)nc2ccccc12 [Example 127] | 1510
4 | COc1ccc(-c2cc(NCCCNCCCN3CCCCC3)c3ccccc3n2)cc1 [Example 4, N^1-(2-(4-Methoxyphenyl)quinolin-4-yl)-N^3-(3-(piperidin-1-yl)propyl) propane-1,3-diamine trihydrochloride] | 220
5 | CN(C)CCCNc1cc(-c2ccc3ncccc3c2)nc2ccccc12 [Example 118] | 800
6 | COc1ccc(-c2cc(NCCCN3CCC4(CNC4)C3)c3ccccc3n2)cc1 [Example 42, N-(3-(2,6-Diazaspiro[3.4]octan-6-yl)propyl)-2-(4-methoxyphenyl)quinolin-4-amine] | 230
7 | COc1ccc(-c2cc(NCCCNCC3CCN(CC4CC4)CC3)c3ccccc3n2)cc1 [Example 71, N^1-((1-(Cyclopropylmethyl)piperidin-4-yl)methyl)-N^3-(2-(4-methoxyphenyl)quinolin-4-yl)propane-1,3-diamine trihydrochloride] | 100
8 | COc1ccc(-c2cc(NCCCN(CCCN)C(C)=O)c3ccccc3n2)cc1 [Example 16, N-(3-(2-(4-Methoxyphenyl)quinolin-4-ylamino)propyl)-N-(3-aminopropyl) acetamide] | 1420
9 | COc1ccc(-c2cc(NCCCN(C)C)c3ccccc3n2)cn1 [Example 139] | 6510
10 | COc1ccc(-c2cc(NCCCN(C)CC3CCN(C(=O)OC(C)(C)C)CC3)c3ccccc3n2)cc1 [Example 47, tert-Butyl 4-{[(3-{[2-(4-methoxyphenyl)quinolin-4-yl]amino}propyl)(methyl)amino]methyl}piperidine-1-carboxylate] | 4050
11 | COc1ccc(-c2cc(NCCCN3CCC(CO)CC3)c3ccccc3n2)cc1 [Example 51, (1-(3-((2-(4-Methoxyphenyl)quinolin-4-yl)amino)propyl)piperidin-4-yl) methanol] | 1490
12 | COc1ccc(-c2cc(NCCCNCCCO)c3ccccc3n2)cc1 [Example 14, 3-((3-((2-(4-Methoxyphenyl)quinolin-4-yl)amino)propyl)amino)-propan-1-ol] | 900
13 | COCCCNCCCNc1cc(-c2ccc(OC)cc2)nc2ccccc12 [Example 15, N-(3-(3-methoxypropylamino)propyl)-2-(4-methoxyphenyl)quinolin-4-amine] | 800
14 | COc1ccc(-c2cc(NC3CCN(CCCN4C(=O)c5ccccc5C4=O)CC3)c3ccccc3n2)cc1 [Example 64, 2-(3-(4-((2-(4-Methoxyphenyl)quinolin-4-yl)amino)piperidin-1-yl)propyl) isoindoline-1,3-dione dihydrochloride] | 3600
15 | COc1ccc(-c2cc(NCCCN(CC3CCNCC3)CC3CCNCC3)c3ccccc3n2)cc1 [Example 59, N-(3-(Bis((piperidin-4-yl)methyl)amino)propyl)-2-(4-methoxyphenyl) quinolin-4-amine] | 100
16 | COc1ccc(-c2cc(NCCCN(C)C(=O)[C@H](C)N)c3ccccc3n2)cc1 [Example 129] | 1660
17 | COc1ccc(-c2cc(NCCC3CCCCN3CCCN)c3ccccc3n2)cc1 (stereo not drawn) [Example 39, N-(2-(1-(3-Aminopropyl)piperidin-2-yl)ethyl)-2-(4-methoxyphenyl) quinolin-4-amine dihydrochloride] | 130
18 | COc1ccc(-c2cc(NCCCN3CCN4CCCC4C3)c3ccccc3n2)cc1 (stereo not drawn) [Example 68, N-(3-(Hexahydropyrrolo[1,2-a]pyrazin-2(1H)-yl)propyl)-2-(4-methoxyphenyl)quinolin-4-amine dihydrochloride] | 2160
19 | COc1ccc(-c2cc(NCCCN3CCC4(C3)CN(C(=O)OC(C)(C)C)C4)c3ccccc3n2)cc1 [Example 41, tert-Butyl 6-(3-((2-(4-methoxyphenyl)quinolin-4-yl)amino)propyl)-2,6-diaza spiro[3.4]octane-2-carboxylate] | 1470
20 | CC(C)C(N)C(=O)NC(C(=O)N1CCN(c2ccc(-c3cc(NCCCN(C)C)c4ccccc4n3)cc2)CC1)C(C)C (stereo not drawn) [Example 111] | 420
21 | COc1ccc(-c2cc(NC3CCC(NCCCNC(=O)OC(C)(C)C)CC3)c3ccccc3n2)cc1 (stereo not drawn) [Example 61, tert-Butyl(3-((4-((2-(4-methoxyphenyl)quinolin-4-yl)amino)cyclohexyl)amino)propyl)carbamate] | 1350

Row | SMILES | IC50 [nM]
22 | NCCCNc1cc(-c2ccc3ncccc3c2)nc2ccccc12 [Example 113] | 570
23 | COc1ccc(-c2cc(NCCCNc3ccc(N4CCCCC4)cc3)c3ccccc3n2)cc1 [Example 55, N^1-(2-(4-Methoxyphenyl)quinolin-4-yl)-N^3-(4-(piperidin-1-yl)phenyl) propane-1,3-diamine dihydrochloride] | 970
24 | NCCCNc1cc(-c2ccco2)nc2ccccc12 [Example 131] | 2550
25 | NCCCNc1cc(-c2cnn(C3CCNCC3)c2)nc2ccccc12 [Example 96] | 120
26 | COc1cc2nc(-c3ccc(N4CCNCC4)cc3)cc(N[C@H]3C[C@H](N)C3)c2cc1OC [Example 80] | 20
27 | COc1ccc(-c2cc(NCCCN3CC4CCN(C(=O)OC(C)(C)C)CC4C3)c3ccccc3n2)cc1 (stereo not drawn) [Example 35, tert-Butyl 2-(3-((2-(4-methoxyphenyl)quinolin-4-yl)amino)propyl) hexahydro-1H-pyrrolo[3,4-c]pyridine-5(6H)-carboxylate] | 2670
28 | COc1cc2nc(-c3ccc(N4CCNCC4)cc3)cc(N[C@H]3CC[C@@H](N)CC3)c2cc1OC [Example 85] | 40
29 | COc1ccc(-c2cc(NCCCN)c3cc(OC)c(OC)cc3n2)cc1 [Example 109] | 290
30 | NCCCNc1cc(-c2ccc(-n3cc4c(n3)CNC4)cc2)nc2ccccc12 [Example 84, N^1-(2-(4-(5,6-dihydropyrrolo[3,4-c]pyrazol-2(4H)-yl)phenyl)quinolin-4-yl)propane-1,3-diamine] | 40
31 | COc1ccc(-c2cc(NCCCN(C)CCCN)c3cc(OC)c(OC)cc3n2)cc1 [Example 94] | 100
32 | COc1cc2nc(-c3ccc(N4CCNCC4)cc3)cc(N[C@H]3CC[C@H](N)CC3)c2cc1OC [Example 81, (1R,4R)—N^1-(6,7-dimethoxy-2-(4-(piperazin-1-yl)phenyl)quinolin-4-yl)cyclohexane-1,4-diamine] | 30
33 | COc1ccc(-c2cc(NCCCN(C)CCCN3CCC(O)CC3)c3ccccc3n2)cc1 [Example 26, 1-(3-((3-((2-(4-Methoxyphenyl)quinolin-4-yl)amino)propyl)-methylamino)propyl) piperidin-4-ol] | 150
34 | COc1ccc2nc(C(F)(F)F)cc(NCCCN(C)C)c2c1 [Example 143] | 79400
35 | CN(C)CCCNc1cc(-c2ccc(N3CCN(C)C(=O)C3)cc2)nc2ccccc12 [Example 114] | 600
36 | COc1ccc(-c2cc(NCCCN(CCCN(C)C)CC3CN(C(=O)OC(C)(C)C)C3)c3ccccc3n2)cc1 [Example 18, tert-Butyl 3-(((3-(dimethylamino)propyl)(3-((2-(4-methoxyphenyl)quinolin-4-yl)amino)propyl)amino)methyl)azetidine-1-carboxylate] | 1410
37 | COc1ccc(-c2cc(NCCCN(C)Cc3ccc(N(C)C)nc3)c3ccccc3n2)cc1 [Example 28, N^1-((6-(dimethylamino)pyridin-3-yl)methyl)-N^3-(2-(4-methoxyphenyl)quinolin-4-yl)-N^1-methylpropane-1,3-diamine] | 1210
38 | COc1ccc(-c2cc(NCCCN3CCOCC3)c3ccccc3n2)cc1 [Example 76, 2-(4-Methoxyphenyl)-N-(3-morpholinopropyl)quinolin-4-amine] | 6280
39 | COc1ccc(-c2cc(NCCCN(C)CC3CCN(C)CC3)c3ccccc3n2)cc1 [Example 30, N^1-(2-(4-methoxyphenyl)quinolin-4-yl)-N^3-methyl-N^3-((1-methylpiperidin-4-yl)methyl)propane-1,3-diamine] | 350
40 | COc1ccc(-c2cc(NCCCNC3CCN(Cc4ccc(F)cc4)CC3)c3ccccc3n2)cc1 [Example 40, N^1-(1-(4-Fluorobenzyl)piperidin-4-yl)-N^3-(2-(4-methoxyphenyl)quinolin-4-yl)propane-1,3-diamine] | 300
41 | COc1cc2nc(-c3ccc(N4CCNCC4)cc3)cc(NCCCN)c2cc1OC [Example 82] | 30
42 | COc1ccc(-c2cc(NCC3CCCN(CCCN4C(=O)c5ccccc5C4=O)C3)c3ccccc3n2)cc1 (stereo not drawn) [Example 65, 2-(3-(3-(((2-(4-Methoxyphenyl)quinolin-4-yl)amino)methyl)piperidin-1-yl)propyl)isoindoline-1,3-dione] | 730

Source: US20220388962A1 (Biohaven Therapeutics Ltd., priority 2019, published 2022)
